Reference: paper PMC7508628, “Targeting the Respiratory Syncytial Virus N^0-P Complex with Constrained α-Helical Peptides in Cells and Mice” (Antimicrobial Agents and Chemotherapy, 2020)
Where a SMILES comes first, the peptide text is derived from it. Bridges are numbered along the chain shown (N, C = ends). [ ]: non-standard residue; d: D form. R8 = C=CCCCCCC[C@@](C)(N)C(=O)O; R5 = C=CCCC[C@@](C)(N)C(=O)O; S5 = C=CCCC[C@](C)(N)C(=O)O

Key:
HEp-2 cells = experiment: HEp-2 cell viability (CellTiter-Glo luminescent cell viability assay); details: peptide alone at 50 μM; duplicates
Procedure: (B) HEp-2 cell viability upon treatment with peptides alone at peptide concentrations of 50, 25, and 12.5 μM. Error bars are standard deviations from duplicates. Data are representative of those from two independent experiments.
Cytotoxicity assays were done with the CellTiter-Glo luminescent cell viability assay (Promega). Each experiment was performed in duplicate and repeated at least twice.

BSRT7/5 cells = experiment: Viability of BSRT7/5 cells transfected with the minigenome; details: 25 μM peptide
Excerpt: BSRT7/5 cells were transfected with plasmids pP, pN, pM2-1, pL, and pM/Luc, together with pRSV-β-Gal for transfection standardization. […] Error bars are standard deviations from duplicates. Data are representative of those from two independent experiments.
Briefly, the dicistronic RSV minigenome pM/Luc was cotransfected into BSRT7/5 cells expressing T7 RNA polymerase, together with plasmids pN, pP, pL, and pM2-1, resulting in the replication and transcription of the minigenome.

rHRSV-mCherry = details: read-out: EC50 (half-maximal response inhibitory concentration), inhibition of RSV infection; HEp-2 cells, MOI 0.2, peptides added after 2 h infection, mCherry fluorescence at 48 h postinfection; duplicates
[1] = Circular dichroism spectroscopy, α-helical content; format: physicochemical; details: CD, 10 mM phosphate buffer pH 7.5, 50 μM peptide, 25°C, calculated from ellipticity at 222 nm; average of three measurements
How it was run: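 Peptides at 50 μM in 10 mM phosphate, pH 7.5, scanned 180–260 nm at 25 °C in a 0.5-mm cell, three scans averaged and buffer-subtracted. Percent helicity derived from per-residue molar ellipticity at 222 nm using a length-corrected 40,000 maximum.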

RSV = details: monthly injection during the peak season, at-risk infants; cited from earlier work
Excerpt: Respiratory syncytial virus (RSV) is very contagious and represents the main cause of severe acute respiratory tract illness in young children worldwide. […] A recent study performed by Pneumonia Etiology Research for Child Health ...

| Compound | Toxicity for uninfected HEp-2 cells (cell viability) (HEp-2 cells) | Cell mortality of minigenome-transfected BSRT7/5 cells (BSRT7/5 cells) | EC50 (rHRSV-mCherry) | % helicity [1] | Efficacy of prophylactic treatment (RSV) |
| --- | --- | --- | --- | --- | --- |
| CC[C@H](C)[C@H](NC(=O)[C@]1(C)CCCC=CCCCCCC[C@@](C)(NC(=O)[C@H](CCC(=O)O)NC(=O)[C@H](CC(N)=O)NC(=O)[C@H](C)NC(=O)[C@]2(C)CCCC=CCCC[C@@](C)(NC(=O)[C@H](Cc3ccccc3)NC(=O)[C@H](CCC(=O)O)NC(C)=O)C(=O)NCC(=O)N[C@@H](CCCCN)C(=O)N2)C(=O)N[C@@H](C)C(=O)N[C@@H]([C@@H](C)O)C(=O)N[C@@H](CCCCN)C(=O)N[C@@H](Cc2ccccc2)C(=O)N[C@@H](CC(C)C)C(=O)N[C@@H](CCC(=O)O)C(=O)N1)C(=O)N[C@@H](CCCCN)C(=O)NCC(=O)N[C@@H](CCCCN)C(=O)N[C@@H](Cc1ccccc1)C(=O)N[C@@H](C)C(=O)N[C@@H](CO)C(N)=O [5d] (Ac-EF[R5]GK[S5]ANE[R8]ATKFLE[S5]IKGKFAS-NH2; staple 3-6, 10-17) | some toxicity | 40% | 6 ± 4.2 µM | 75.7% | – |
| palivizumab: monoclonal antibody administered monthly as an injectable for RSV prophylaxis | – | – | – | – | approximately 50% |
